Reference: patent publication US5340800A, “Peptide medicaments for the treatment of disease” (priority 1992, dated 1994)
Read-outs that look alike come from different tables or passages of the source. No end group written: not given here.

Experiments:
[1] = tested on: polymorphonuclear leukocyte migration; test: Chemotaxis of polymorphonuclear leukocytes (trans-well, zymosan-activated human serum); type: cell-based
Procedure: The materials and methods for ascertaining the chemotactic inhibitory properties of peptides are generally known in the art, and the preferred procedure is described by Capsoni, et al., 1989, J. of Immunol. Meth., 120:125. Generally, chemotaxis is determined by positioning the leukocytes and a chemotactic substance on opposite sides of a membrane in appropriate culture media. The preferred apparatus for doing a chemotaxis assay is produced by Costar Corporation, Cambridge, Mass., and is termed the trans-well cell culture apparatus. […] If a substance is being tested for inhibitory activity this can be achieved by combining it with the leukocytes or the chemotactic substance.
The procedure of Capsoni, et al., above, was followed with the following modifications. Leukocytes may be isolated and labelled with ^111 Indium as described for the adhesion assay, above. The cells are resuspended after labelling in an appropriate cell culture medium at about 5×10^6 cells/ml. Next, a desired amount of the cell suspension is mixed with a predetermined amount of the peptide(s) to be tested for inhibitory activity, and the mixture added to an appropriate filter device. Three μm-pore membranes are situated in the wells of a 24 trans-well tissue culture plate. The cell/inhibitory peptide mixture is incubated for a short time at 37° C. to acclimate the cells to the membrane surface, and to provide sufficient time for them to settle onto the membrane surface. Next, inserts are set in wells containing cell culture media. The media contains zymosan-activated human serum at about 0.5%. Zymosan activation generates complement-derived chemotactic factors which attract the leukocytes through the pores of the membrane. This media was also prewarmed for an appropriate time prior to addition to the cell culture wells. After a 30 minute incubation period at 37° C., the number of leukocytes that have migrated through the membrane filter, in the presence or absence of CD18 peptides, is readily determined by counting the amount of ^111 Indium present in the media. This may be facilitated by adding an appropriate detergent at an appropriate concentration to the media in the wells prior to removing an aliquot for counting. In this way, the inhibitory activities of the peptide being tested could be determined.
Many of the materials and methods used to test the inhibitory activity of the CD18 peptides on the chemotactic response of the polymorphonuclear leukocytes are similar or identical to those used to perform the adhesion assays described in Example 1. Polymorphonuclear leukocytes were isolated and labelled with ^111 Indium as described before, and the cells were suspended in RPMI 1640 culture medium at a concentration of 5×10^6 /ml. Next, 75 μl of the cell suspension and 25 μl of media containing a desired concentration of a CD18 peptide were added to trans-well inserts, and the mixture was incubated at 37° C. for 10 minutes.
To the bottom wells of the 24-well plate 0.6 ml of media containing 0.5% zymosan-activated human serum was added. This solution was also warmed to 37° C. for 10 minutes prior to use.
Next, the assay was conducted by incubating the trans-well inserts containing the cell suspension with the desired CD18 peptide in the 24-well plates at 37° C. for 30 minutes. Subsequently, the inserts were removed, and 60 μl of a 10% sodium dodecyl sulphate solution was added to the wells of the 24-well plate. The plates were incubated with gentle shaking at room temperature for 15 minutes, and 110 μl aliquots were removed and the amount of ^111 Indium determined using a gamma-counter.

[2] = tested on: polymorphonuclear leukocyte adhesion to TNF activated endothelial cells; type: cell-based, human; details: average over PMN donors (# donors in parentheses)
Procedure: Leukocyte adherence can be measured using several assays known in the art, and the preferred assay is described by Charo, et al., 1985, Blood, 65:473. Briefly, the assay consists of labelling leukocytes with an appropriate label, incubating them with endothelial cells and determining the number of leukocytes that adhere. Preferably the cells are labelled with a gamma ray emitting isotope and the preferred labels are ^111 Indium-oxide or ^51 chromium.
Leukocytes may be isolated from human donors using standard techniques. This generally consists of isolating blood in a physiologically balanced salt solution containing an appropriate anticoagulant, and separating the leukocytes by an appropriate separation step, preferably on Ficoll-Hypaquegradients. Contaminating erythrocytes can be removed by hypotonic lysis. The resulting leukocytes are suspended in a physiologically buffered solution, pH 7.4. The preferred physiological buffered solution is Hank's balanced salt solution that is calcium and magnesium free.
The isolated leukocytes can then be labelled by incubating them for an appropriate time, generally 15 minutes, with the desired radioisotope at a predetermined concentration. The radiolabelled cells are washed to remove unincorporated label, and then suspended in an appropriate solution to perform the adhesion assay described below.
Endothelial cells can be prepared from a number of sources and by several techniques known in the art. Preferably they are obtained from human umbilical veins using the procedure of Charo et al., above. Generally, endothelial cells are isolated by enzymatic digestion of the umbilical veins using, preferably, collagenase as described by Jaffe, E. A., et al., 1973, J. of Clin. Invest, 52:2745. The cells are grown on an appropriate tissue culture substratum, preferably gelatine-coated surfaces.
The endothelial cells may be grown in a variety of tissue culture media containing appropriate supplements such as an appropriate concentration of fetal calf serum, and other supplements/additives routinely utilized by those skilled in this art that are recognized as being favorable for endothelial cells. The endothelial cells may be passaged with a dilute solution of an appropriate protease, and if desired a metal ion chelator. Preferably a solution consisting of 0.05 to 0.25% trypsin and 0.02% EDTA is used. To ensure that the cells are indeed endothelial cells, they are tested by immunofluorescence for Factor VIII antigen, a known endothelial cell marker.
Leukocyte adherence to endothelial cell monolayers may be determined as follows. Early passage endothelial cells, generally not beyond the fifth passage, are cultured on an appropriate substratum and in a suitable cell culture medium. The culture substratum is preferably pre-coated with an appropriate substance that enhances the adherence of the endothelial cells. Several such substances are known including fibronectin, poly-L-lysine, gelatin and laminin. Fibronectin is preferred. An appropriate culture substratum is a 96 well micro titer plate, and a suitable medium is Medium 199 containing fetal calf serum and other supplements known to be beneficial for the growth and maintenance of endothelial cells that are well known to those skilled in the art. Prior to adding a predetermined number of labelled leukocytes, the endothelial cell monolayer is washed with a physiologically balanced salt solution containing a reduced amount of fetal calf serum, preferably 1%. The preferred solution is RPMI supplemented with 1% fetal calf serum.
The endothelial cell monolayer containing added leukocytes is incubated for a time sufficient to permit maximum adherence of the leukocytes, and preferably this is conducted at 37° C. for 30 minutes in an appropriate cell culture atmosphere. Generally this would consist of growing and incubating the cells for the assay period in 5% CO2, 95% air, and 95% humidity. […]

VGKQLISGNLDAPEGGLDAMMQVA [Peptide 5-24, NH2 --Val--Gly--Lys--Gln--Leu--Ile--Ser--Gly--Asn--Leu--Asp--Ala--Pro--Glu--Gly--Gly--Leu--Asp--Ala--Met--Met--Gln--Val--Ala--COOH]
percent inhibition (-) or enhancement of polymorphonuclear leukocyte migration ([1]; 10^-4 M, donor 195): -52%
percent inhibition (-) or enhancement of polymorphonuclear leukocyte migration ([1]; 10^-4 M, donor 499): 0%
percent inhibition (-) or enhancement of polymorphonuclear leukocyte migration ([1]; 10^-4 M, donor 591): 51%
percent inhibition (-) or enhancement of polymorphonuclear leukocyte migration ([1]; 10^-4 M, donor 593): -33%
percent inhibition (-) or enhancement of polymorphonuclear leukocyte migration ([1]; 10^-5 M, donor 195): -56%
percent inhibition (-) or enhancement of polymorphonuclear leukocyte migration ([1]; 10^-5 M, donor 499): -15%
percent inhibition (-) or enhancement of polymorphonuclear leukocyte migration ([1]; 10^-5 M, donor 591): 55%
percent inhibition (-) or enhancement of polymorphonuclear leukocyte migration ([1]; 10^-5 M, donor 593): 12%
percent inhibition (-) or enhancement of polymorphonuclear leukocyte migration ([1]; 10^-6 M, donor 195): -22%
percent inhibition (-) or enhancement of polymorphonuclear leukocyte migration ([1]; 10^-6 M, donor 499): -26%
percent inhibition (-) or enhancement of polymorphonuclear leukocyte migration ([1]; 10^-6 M, donor 591): 52%
percent inhibition (-) or enhancement of polymorphonuclear leukocyte migration ([1]; 10^-6 M, donor 593): -4%
Average % Change of PMN Adhesion to TNF Activated ECs ([2]; 10^-4 M): -17%
Average % Change of PMN Adhesion to TNF Activated ECs ([2]; 10^-6 M): -13%
Average % Change of PMN Adhesion to TNF Activated ECs ([2]; 10^-8 M): -6%
